The values below come from ChEMBL document CHEMBL4321854, “Discovery of a First-in-Class Mitogen-Activated Protein Kinase Kinase 1/2 Degrader” (J Med Chem, 2019).

The structures appear in SMILES notation. pIC50: −log10 of the molar value. Calls of active or inactive are those of the source. The rule behind the calls is not given here.

Assay [1] addresses Protein cereblon/Dual specificity mitogen-activated protein kinase kinase 1 (Homo sapiens) (UniProt Q02750+Q96SW2). In words: Protac activity against CRBN/MEK1 in human HT-29 cells harboring BRAF V600E variant assessed as degradation of MEK1 at 0.3 to 3 uM after 24 hrs by Western blot analysis. The assay is classed as cell-based.
For assay [2], the target named is Protein cereblon/Dual specificity mitogen-activated protein kinase kinase 2 (Homo sapiens) (UniProt P36507+Q96SW2). In words: Protac activity against CRBN/MEK2 in human HT-29 cells harboring BRAF V600E variant assessed as degradation of MEK2 at 0.3 to 3 uM after 24 hrs by Western blot analysis. The assay is classed as cell-based.
In assay [3] the target is T1, von Hippel-Lindau disease tumor suppressor/Dual specificity mitogen-activated protein kinase kinase 2 (Homo sapiens) (UniProt P36507+P40337). In words: Protac activity against VHL/MEK2 in human HT-29 cells harboring BRAF V600E variant assessed as degradation of MEK2 at 0.3 to 3 uM after 24 hrs by Western blot analysis. The assay is classed as cell-based.
Assay [4] has as its target T2, von Hippel-Lindau disease tumor suppressor/Dual specificity mitogen-activated protein kinase kinase 1 (Homo sapiens) (UniProt Q02750+P40337). In words: Protac activity against VHL/MEK1 in human HT-29 cells harboring BRAF V600E variant assessed as degradation of MEK1 at 0.3 to 3 uM after 24 hrs by Western blot analysis. The assay is classed as cell-based.
For assay [5], the target named is T1, von Hippel-Lindau disease tumor suppressor/Dual specificity mitogen-activated protein kinase kinase 2 (Homo sapiens). In words: Protac activity against VHL/MEK2 in human HT-29 cells harboring with BRAF V600E variant assessed as degradation of MEK2 by measuring MEK2 protein level up to 1 uM after 24 hrs by Western blot analysis. The assay is classed as cell-based.

Assay [6] has the same target. In words: Protac activity against VHL/MEK2 in human SK-MEL-28 cells harboring with BRAF V600E variant assessed as degradation of MEK2 by measuring MEK2 protein level up to 1 uM after 24 hrs by Western blot analysis. In kind it is cell-based.
Assay [7] concerns HT-29. In words: Inhibition of colony formation in human HT-29 cells at 10 to 100 nM supplemented with fresh medium containing compound every 3 days for 14 days by crystal violet staining based assay. The assay is classed as functional, cell-based.
Assay [8] deals with HT-29. In words: Antiproliferative activity against human HT-29 cells assessed as reduction in cell growth after 3 days by MTT assay. In kind it is functional.
For assay [9], the system named is UACC-257. In words: Antiproliferative activity against human UACC257 cells assessed as reduction in cell growth after 3 days by MTT assay. The assay is classed as functional.
Assay [10] relates to SK-MEL-28. In words: Antiproliferative activity against human SK-MEL-28 cells assessed as reduction in cell growth after 3 days by MTT assay. In kind it is functional.
The test system of assay [11] is SK-MEL-28. In words: Inhibition of colony formation in human SK-MEL-28 cells at 10 to 100 nM supplemented with fresh medium containing compound every 3 days for 14 days by crystal violet staining based assay. In kind it is functional, cell-based.
Assay [12] concerns COLO 205. In words: Antiproliferative activity against human COLO205 cells assessed as reduction in cell growth after 3 days by WST8 assay. In kind it is functional.
Assay [13] deals with Dual specificity mitogen-activated protein kinase kinase 2 (Homo sapiens, UniProt P36507). In words: Inhibition of recombinant full length human His-tagged MEK2 expressed in baculovirus expression system using ERK K52R dead variant as substrate preincubated for 20 mins followed by incubation with 33P-ATP for 2 hrs by hotspot kinase assay.
Assay [14] deals with T2, von Hippel-Lindau disease tumor suppressor/Dual specificity mitogen-activated protein kinase kinase 1 (Homo sapiens). In words: Protac activity against VHL/MEK1 in human HT-29 cells harboring with BRAF V600E variant assessed as degradation of MEK1 by measuring reduction in MEK1 protein level at 0.1 uM after 10 hrs by LC-MS based Volcano plot analysis. In kind it is cell-based.

For assay [15], the target named is Dual specificity mitogen-activated protein kinase kinase 1 (Homo sapiens, UniProt Q02750). In words: Inhibition of recombinant full length human His-tagged MEK1 expressed in baculovirus expression system using ERK K52R dead variant as substrate preincubated for 20 mins followed by incubation with 33P-ATP addition for 2 hrs by hotspot kinase assay.
Assay [16] deals with T1, von Hippel-Lindau disease tumor suppressor/Dual specificity mitogen-activated protein kinase kinase 2 (Homo sapiens). In words: Protac activity against VHL/MEK2 in human HT-29 cells harboring with BRAF V600E variant assessed as degradation of MEK2 by measuring reduction in MEK2 protein level at 0.1 uM after 10 hrs by LC-MS based Volcano plot analysis. The assay is classed as cell-based.

T2 sequence (P40337 whole entry, looked up): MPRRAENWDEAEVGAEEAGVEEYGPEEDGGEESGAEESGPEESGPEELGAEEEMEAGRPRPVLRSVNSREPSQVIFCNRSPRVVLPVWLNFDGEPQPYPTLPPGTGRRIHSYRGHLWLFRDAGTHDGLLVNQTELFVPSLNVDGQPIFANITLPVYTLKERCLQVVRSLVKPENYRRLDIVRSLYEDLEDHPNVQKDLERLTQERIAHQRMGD
T2 sequence (Q02750 whole entry, looked up): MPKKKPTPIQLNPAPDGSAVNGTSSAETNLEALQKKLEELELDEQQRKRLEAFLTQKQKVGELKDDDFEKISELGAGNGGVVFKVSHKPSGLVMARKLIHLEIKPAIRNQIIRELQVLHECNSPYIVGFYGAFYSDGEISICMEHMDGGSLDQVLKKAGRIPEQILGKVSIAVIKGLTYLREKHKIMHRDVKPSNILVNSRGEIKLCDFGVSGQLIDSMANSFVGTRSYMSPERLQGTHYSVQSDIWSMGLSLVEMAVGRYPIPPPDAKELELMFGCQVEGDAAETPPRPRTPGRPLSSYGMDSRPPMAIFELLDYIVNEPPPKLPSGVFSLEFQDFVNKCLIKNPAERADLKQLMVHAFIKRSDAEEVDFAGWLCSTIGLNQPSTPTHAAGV
T1 sequence (P36507 whole entry, looked up): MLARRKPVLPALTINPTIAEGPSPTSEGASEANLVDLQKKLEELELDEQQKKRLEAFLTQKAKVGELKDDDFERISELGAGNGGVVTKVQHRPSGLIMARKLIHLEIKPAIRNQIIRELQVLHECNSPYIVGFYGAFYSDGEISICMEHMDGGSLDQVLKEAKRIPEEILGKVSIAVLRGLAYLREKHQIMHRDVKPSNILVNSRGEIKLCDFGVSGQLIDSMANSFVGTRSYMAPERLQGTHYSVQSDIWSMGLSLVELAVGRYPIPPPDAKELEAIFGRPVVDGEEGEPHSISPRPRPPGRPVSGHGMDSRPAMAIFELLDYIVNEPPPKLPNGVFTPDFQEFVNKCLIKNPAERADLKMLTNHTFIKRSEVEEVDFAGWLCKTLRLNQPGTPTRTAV
T1 sequence (P40337 whole entry, looked up): as the sequence (P40337 whole entry, looked up) above
Protein cereblon/Dual specificity mitogen-activated protein kinase kinase 2 (Homo sapiens), sequence (P36507 whole entry, looked up): as the sequence (P36507 whole entry, looked up) above
Protein cereblon/Dual specificity mitogen-activated protein kinase kinase 2 (Homo sapiens), sequence (Q96SW2 whole entry, looked up): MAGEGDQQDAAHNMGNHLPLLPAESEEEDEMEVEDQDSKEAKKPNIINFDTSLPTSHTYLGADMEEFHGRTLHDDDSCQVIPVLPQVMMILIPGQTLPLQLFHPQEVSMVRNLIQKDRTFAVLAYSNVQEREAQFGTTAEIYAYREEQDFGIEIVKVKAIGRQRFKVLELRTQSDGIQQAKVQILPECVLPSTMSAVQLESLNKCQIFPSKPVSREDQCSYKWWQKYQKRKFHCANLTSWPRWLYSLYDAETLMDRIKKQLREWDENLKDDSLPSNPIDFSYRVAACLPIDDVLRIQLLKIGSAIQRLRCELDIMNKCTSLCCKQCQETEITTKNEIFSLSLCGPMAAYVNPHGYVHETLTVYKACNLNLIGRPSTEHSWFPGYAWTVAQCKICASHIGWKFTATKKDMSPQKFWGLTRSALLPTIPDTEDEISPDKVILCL
Protein cereblon/Dual specificity mitogen-activated protein kinase kinase 1 (Homo sapiens), sequence (Q02750 whole entry, looked up): as the sequence (Q02750 whole entry, looked up) above
Protein cereblon/Dual specificity mitogen-activated protein kinase kinase 1 (Homo sapiens), sequence (Q96SW2 whole entry, looked up): as the sequence (Q96SW2 whole entry, looked up) above
Dual specificity mitogen-activated protein kinase kinase 2, sequence (P36507 whole entry): as the sequence (P36507 whole entry, looked up) above
Dual specificity mitogen-activated protein kinase kinase 1, sequence (Q02750 whole entry): as the sequence (Q02750 whole entry, looked up) above

Take `O=C1CCC(N2C(=O)c3cccc(NCCNCCCONC(=O)c4ccc(F)c(F)c4Nc4ccc(I)cc4F)c3C2=O)C(=O)N1` (stereo not given): the result in [1] and in assay [2] was inactive.
For `Cc1ncsc1-c1ccc(CNC(=O)[C@@H]2C[C@@H](O)CN2C(=O)[C@@H](NC(=O)CCCCCCCCCCNCCCONC(=O)c2ccc(F)c(F)c2Nc2ccc(I)cc2F)C(C)(C)C)cc1`, the result in [3] and in assay [4] was Active.
Turning to `O=C1CCC(N2C(=O)c3cccc(NCCOCCNCCCONC(=O)c4ccc(F)c(F)c4Nc4ccc(I)cc4F)c3C2=O)C(=O)N1` (stereo not given), the result in assay [1] and in [2] was inactive.
For `O=C(NOC[C@H](O)CO)c1ccc(F)c(F)c1Nc1ccc(I)cc1F` [MIRDAMETINIB], the outcome in assay [5] and in assay [6] was inactive. For the same molecule, the inhibition entry in assay [7] and in assay [11] was “Active” each time. The GI50 in [8] (HT-29, 72 h) is 3.1 nM; in [9] (UACC-257, 72 h), 0.2 to 4.2 nM; in [10] (SK-MEL-28, 72 h) it was 2.9 nM; in assay [12] (COLO 205, 72 h), 0.2 to 4.2 nM.
On to `Cc1ncsc1-c1ccc(CNC(=O)[C@@H]2C[C@@H](O)CN2C(=O)[C@@H](NC(=O)CCCCCCNCCCONC(=O)c2ccc(F)c(F)c2Nc2ccc(I)cc2F)C(C)(C)C)cc1`, for which the result in assay [3] and in assay [4] was Active.
Take `Cc1ncsc1-c1ccc(CNC(=O)[C@@H]2C[C@@H](O)CN2C(=O)[C@@H](NC(=O)COCCOCCOCCNCCCONC(=O)c2ccc(F)c(F)c2Nc2ccc(I)cc2F)C(C)(C)C)cc1`: the outcome in [3] and in [4] was Active.
`Cc1ncsc1-c1ccc([C@H](C)NC(=O)[C@H]2C[C@H](O)CN2C(=O)[C@@H](NC(=O)CCCCCCCCCCNCCCONC(=O)c2ccc(F)c(F)c2Nc2ccc(I)cc2F)C(C)(C)C)cc1`: the result in [5], in [6], in [14] and in assay [16] was inactive. The inhibition entry in [7] and in assay [11] was “inactive” each time. The figures for the pIC50 in assay [13] and in assay [15] were 5.82 and 5.80, respectively. Moreover, the GI50 entry in assay [8], in [9], in assay [10] and in assay [12] was “inactive” in each case.
